Source: patent US11566047B2, “Peptide or pharmaceutically acceptable salt thereof, or prodrug thereof” (TOKYO UNIVERSITY OF PHARMACY & LIFE SCIENCES, priority 2016, dated 2023)
Square brackets hold non-standard residues; d marks the D form. Ends that are not written are not given here. Peptide text beside a SMILES is read from it. * marks the point of attachment. Diglycolyl(TOTA) = NCCCOCCOCCOCCCNC(=O)COCC(=O)*; Chg = N[C@H](C(=O)O)C1CCCCC1; X1 = COCCOCCOCCOCCC(=O)*; Ahx = NCCCCCC(=O)O

The compounds below were run against T1, myostatin (Homo sapiens, UniProt O14793) (assay: cell-based). Conditions: HEK293, read-out: luciferase activity (relative; myostatin without test sample = 100%).
T1 sequence (O14793 267-375): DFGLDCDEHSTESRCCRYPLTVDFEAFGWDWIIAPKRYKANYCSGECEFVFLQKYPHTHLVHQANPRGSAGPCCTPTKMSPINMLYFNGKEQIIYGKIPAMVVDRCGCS
Method: Human embryo kidney cell HEK293 cells were cultured in a 5% (v/v) CO2 incubator set to 37° C. using DMEM (NACALAI TESQUE, INC.) including a 10% (v/v) fetal bovine serum (FBS) added with a 1% (v/v) non-essential amino acid (Wako Pure Chemical Corporation).
(2) In Vitro Reporter Assay
HEK293 cells were seeded on a D-Lys-corted 96-well transparent plate (Thermo Fisher Scientific Inc.) in an amount of 2.0×10^4 cells (100 μL DMEM+10% (v/v) FBS) per well and were cultured for 24 hours.
The cells were cultured at 37° C. for 24 hours, and after the cell culture solution was replaced with serum-free DMEM, the cells were cultured for 8 hours. Incidentally, pGL4.48 [luc2P/SBE/Hygro] includes firefly luciferase reporter gene luc2P under Smad binding region (SBE) control, and when a signaling pathway by the myostatin is activated, intracellular Smad forms a complex, and the complex is bonded to SBE to promote transcription of luc2P.
The peptide as a test sample was suspended as a stock solution using DMSO to become 10 mM and stored at −30° C. Before 1 hour from addition to the culture medium, the peptide and a myostatin (Merck Millipore Corp.) were suspended with serum-free DMEM and left to stand still at room temperature (25° C.) for 20 minutes. Subsequently, a peptide with an arbitrary final concentration (0.3 to […]) and 8 ng/mL of myostatin were added to the culture medium, and then culturing was performed for 4 hours. After culturing for 4 hours, the culture solution was removed by an aspirator and the cells were washed with 1×PBS. Thereafter, Passive Lysis buffer (Promega Corporation) was added in an amount of 50 μL per well to dissolve the cells. The dissolving solution was subjected to centrifugal separation at 4500 rpm for 6 minutes under the condition of 4° C. After 20 μL of supernatant subjected to centrifugal separation was transferred to a white 96-well plate (Costar), 50 μL of Luciferase Assay Reagent (Promega Corporation) was then added, emission was detected by Luminoskan Ascent (Thermo Fisher Scientific Inc.), and a firefly luciferase activity was measured. Further, after 50 μL of Stop & Glo Buffer (Promega Corporation) was added, emission was detected by Luminoskan Ascent, and a Renilla luciferase activity was measured to be regarded as an internal control.

**Q.** How did the remaining activity at 0.3 µM turn out when `CC[C@H](C)[C@H](NC(=O)[C@H](CCC(N)=O)NC(=O)[C@@H](NC(=O)[C@H](CCCCN)NC(=O)[C@@H](NC(=O)[C@@H](Cc1c[nH]c2ccccc12)NC(=O)[C@H](CCCNC(=N)N)NC(=O)[C@@H](NC(=O)[C@H](Cc1ccc(O)cc1)NC(=O)[C@H](Cc1c[nH]c2ccccc12)NC(=O)CNC(=O)COCC(=O)NCCCOCCOCCOCCCN)[C@@H](C)CC)[C@@H](C)CC)C1CCCCC1)C(=O)N[C@@H](Cc1c[nH]c2ccccc12)C(=O)N[C@@H](CO)C(=O)N[C@@H](CCCCN)C(=O)N[C@H](C(=O)N[C@@H](CCCNC(=N)N)C(=O)N[C@@H](CC(C)C)C(N)=O)C1CCCCC1` [PDM-90, R^116-WYIRwIK-Chg-QIWSK-Chg-RL-NH2] ({Diglycolyl(TOTA)}-GWYIR[dW]IK[Chg]QIWSK[Chg]RL-NH2) was run?
**A.** ≤ 60%

**Q.** How did the remaining activity at 0.3 µM turn out when `CC[C@H](C)[C@H](NC(=O)[C@H](Cc1ccc(O)cc1)NC(=O)[C@H](Cc1c[nH]c2ccccc12)NC(=O)CCCCCNC(=O)CCOCCOCCOCCOC)C(=O)N[C@@H](CCC(=O)O)C(=O)N[C@@H](CO)C(=O)N[C@H](C(=O)N[C@@H](CCCCN)C(=O)N[C@H](C(=O)N[C@@H](CCC(N)=O)C(=O)N[C@H](C(=O)N[C@@H](Cc1c[nH]c2ccccc12)C(=O)N[C@@H](CO)C(=O)N[C@@H](CCCCN)C(=O)N[C@@H](CC(C)C)C(=O)N[C@@H](CCCNC(=N)N)C(=O)N[C@@H](CC(C)C)C(N)=O)[C@@H](C)CC)[C@@H](C)CC)[C@@H](C)CC` [PDM-63, R^111-WYIESIKIQIWSKLRL-NH2] ({X1-Ahx}-WYIESIKIQIWSKLRL-NH2) was run?
**A.** ≤ 60%

**Q.** With `CC[C@H](C)[C@H](NC(=O)[C@H](CCC(N)=O)NC(=O)[C@@H](NC(=O)[C@H](CCCCN)NC(=O)[C@@H](NC(=O)[C@@H](Cc1c[nH]c2ccccc12)NC(=O)[C@H](CCCNC(=N)N)NC(=O)[C@@H](NC(=O)[C@H](Cc1ccc(O)cc1)NC(=O)[C@H](Cc1c[nH]c2ccccc12)NC(=O)CNC(=O)CNC(=O)COCC(=O)NCCCOCCOCCOCCCN)[C@@H](C)CC)[C@@H](C)CC)C1CCCCC1)C(=O)N[C@@H](Cc1c[nH]c2ccccc12)C(=O)N[C@@H](CO)C(=O)N[C@@H](CCCCN)C(=O)N[C@H](C(=O)N[C@@H](CCCNC(=N)N)C(=O)N[C@@H](CC(C)C)C(N)=O)C1CCCCC1` [PDM-91, R^117-WYIRwIK-Chg-QIWSK-Chg-RL-NH2] ({Diglycolyl(TOTA)}-GGWYIR[dW]IK[Chg]QIWSK[Chg]RL-NH2) as the compound, how does the remaining activity at 0.3 µM read?
**A.** ≤ 60%

**Q.** How did the remaining activity at 0.3 µM turn out when `CC[C@H](C)[C@H](NC(=O)[C@H](CCC(N)=O)NC(=O)[C@@H](NC(=O)[C@H](CCCCN)NC(=O)[C@@H](NC(=O)[C@H](Cc1c[nH]c2ccccc12)NC(=O)[C@H](CCCNC(=N)N)NC(=O)[C@@H](NC(=O)[C@H](Cc1ccc(O)cc1)NC(=O)[C@@H](N)Cc1c[nH]c2ccccc12)[C@@H](C)CC)[C@@H](C)CC)[C@@H](C)CC)C(=O)N[C@@H](Cc1c[nH]c2ccccc12)C(=O)N[C@@H](CO)C(=O)N[C@@H](CCCCN)C(=O)N[C@H](C(=O)N[C@@H](CCCNC(=N)N)C(=O)N[C@@H](CC(C)C)C(N)=O)C1CCCCC1` [nPDM-65, WYIRWIKIQIWSK-Chg-RL-NH2] (H-WYIRWIKIQIWSK[Chg]RL-NH2) was run?
**A.** ≤ 60%

**Q.** Which remaining activity at 0.3 µM does the source give for `CC[C@H](C)[C@H](NC(=O)[C@H](CCC(N)=O)NC(=O)[C@@H](NC(=O)[C@H](CCCNC(=N)N)NC(=O)[C@@H](NC(=O)[C@@H](Cc1c[nH]c2ccccc12)NC(=O)[C@H](CCCNC(=N)N)NC(=O)[C@@H](NC(=O)[C@H](Cc1ccc(O)cc1)NC(=O)[C@@H](N)Cc1c[nH]c2ccccc12)[C@@H](C)CC)[C@@H](C)CC)C1CCCCC1)C(=O)N[C@@H](Cc1c[nH]c2ccccc12)C(=O)N[C@H](CO)C(=O)N[C@@H](CCCNC(=N)N)C(=O)N[C@H](C(=O)N1CCC[C@H]1C(=O)N[C@@H](CC(C)C)C(N)=O)C1CCCCC1` [nPDM-82, WYIRwIR-Chg-QIWsR-Chg-PL-NH2] (H-WYIR[dW]IR[Chg]QIW[dS]R[Chg]PL-NH2) here?
**A.** ≤ 60%

Same assay, conditions: final concentration of 1 μM

**Q.** “WYIEAIKIQILSKLRL-NH2 [d-14, reference compound]” was tested. Which myostatin inhibitory activity did it give?
**A.** a high myostatin inhibitory activity was not recognized
